The values that follow come from patent US10519132B2, “Isocorydine derivatives, preparation method and use thereof” (Lanzhou Institute of Chemical Physics, Chinese Academy of …, priority 2017, dated 2019).

Molecules are shown by their SMILES. Converted amounts (≈) assume the structure as drawn. Read-outs that look alike come from different tables or passages of the source. Some results are limits rather than exact numbers.

For assay [1], the system named is C-Myc, Ki-67, CylinD1, β-Catenin protein. Briefly: Western blotting, protein expression in HepG2 cells. The note with it: sorafenib 4 μg/mL, high FICD dosage 20 μg/mL, combination 4 μg/mL sorafenib+10 μg/mL FICD. The assay is classed as cell-based, human. How it is done:
(§1) Method: Gel electrophoresis of protein samples. Gel formulation: All components were added to a small beaker according to a formulation of a separation gel, uniformly mixed with slightly shaking to prevent the generation of bubbles, quickly applied to a seam of a glass plate with a 1 mL pipette, and then blocked with double distilled water to prevent oxidation. After 30 min, the separation gel solidified, the double distilled water thereof was poured off, waster was suctioned with a filter paper, a 5% concentration gel was formulated, TEMED was finally loaded onto the glass plate, and a 1.0 mm comb was inserted into the concentration gel and placed at room temperature for 30 min. The comb was slightly, vertically, and carefully pulled up, various groups of 20 μL protein samples were pipetted with a microsyringe, an equal volume of a loading buffer and an equal volume of a loading buffer containing 3 μL of Marker were separately added to a loading well, an electrophoresis instrument was switched on after electrodes were plugged, gels were run at 75V for 30 min, and the voltage was changed to 120V and gels were run for 2 h when bromophenol blue reaches the separation gel. Membrane transfer: A PVDF membrane having a suitable size was cut according to the size of the gel, placed in a methanol solution for 1 min, lifted, and placed and soaked together with a well cut filter paper in a previously precooled membrane transfer buffer. A sponge pad, three layers of filter paper, a gel, three layers of filter paper, and a sponge pad, in this order from top to bottom, were placed in a membrane transfer tank, and a precooled membrane transfer buffer was then added. Several ice bags were placed circumferentially to prevent an excessively hot external environment, and electrodes were plugged and membrane transfer was performed at a constant current of […] for 2.5 hours. Blocking and incubation of antibodies: A transferred membrane was cut into desired bands, which were placed in a blocking solution of 5% skim milk powder, placed on a shaker, and shaken at room temperature at a low speed for 1 h. A primary antibody was diluted with the blocking solution, a corresponding antibody was pipetted and added to a zip lock bag, the PVDF membrane was then placed in the antibody dilution, bubbles in the zip lock bag were evacuated, and the zip lock bag was sealed and placed in a refrigerator at 4° C. overnight. The membrane was withdrawn from the zip lock bag on the second day, and placed in a clean dish. A TBST solution was added and washed 3 times on a low-speed shaker, 10 min for each time. […]
(In general: Immunoblotting shows a protein as a band on a membrane.)

The test system of assay [2] is ascites hepatoma H22 induced solid tumor. Briefly: In vivo tumor growth inhibition in mice bearing H22. More on the design: species or system white Kunming mice. The note with it: for Tumor inhibition rate (%): Table 5.
A further assay relates to Vimentin. Description: Western blotting, Vimentin expression in HepG2 cells. The assay is classed as cell-based, human. Particulars: FICD experiment (FIG. 12). How it is done: as §1
Another assay has as its system human brain glioma U251. Briefly: MTT growth inhibition on U251. The assay is classed as cell-based. Particulars: U-251, after 48 h of action.
The subject of assay [3] is human breast cancer cell strain MAD-MB-231. Briefly: MTT growth inhibition on MAD-MB-231. It counts as cell-based. The note with it: MDA-MB-231, after 48 h of action.
Experimental: (§2) By using an MTT method, a sample solution to be tested was added to a 96-well plate in which cancer cells were adherently grown. Culturing was performed for a certain period, and the growth inhibition effect of a compound on a human cancer cell strain for primary screening was measured to determine the anti-cancer activity of the compound.
(§3) Cell culture: A cell incubator was set to conditions of 37° C., 5% CO2, and a saturated humidity, cells were cultured under these conditions, and the cell medium was a DMEM complete medium, wherein 10% fetal bovine serum, 100 IU/mL penicillin, and 100 μg/mL streptomycin were comprised.
(§4) The single cell suspension was diluted to 5×10^3/100 μL after counting, inoculated on a 96-well cell culture plate (triplicate), and adherently cultured overnight; […]
(§5) The culture liquid was discarded, 100 μL of DMSO was added, low-speed oscillation was performed for 10 min by placing on a shaker, and the spectrophotometric value of each well was measured at a wavelength of 490 nm by using a microplate reader. Statistical analysis was performed and tumor cell growth inhibition rate was calculated according to the equation: Growth inhibition rate=(OD value of control group−OD value of experimental group)/OD value of control group.
The test system of assay [4] is human liver cancer cell strain SMMC-7721. Description: MTT growth inhibition on SMMC-7721. The assay is classed as cell-based. Particulars: concentration range of 10-40 μg/mL, one of 6 types of tumor cells.
Experimental: as §2, §3, §4, §5
The test system of assay [5] is human cervical cancer Hela cell strains. Description: MTT growth inhibition on Hela.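 Note: compound exposure of 24, 48 or 72 h in DMEM with 10% fetal bovine serum, MTT absorbance read at 490 nm, inhibition calculated relative to control group OD.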 The note with it: Homo sapiens, HeLa.
Another assay relates to HepG2 cells. Briefly: Apoptosis induction, Annexin V and PI double-staining, flow cytometry. Particulars: HepG2, 24 h; sorafenib 4 μg/mL; combination 4 μg/mL sorafenib+5 μg/mL FICD. It counts as cell-based, human. As to the method: Different concentrations of FICD were added on the second day, culture was continued for 24 h, cells were collected and washed 3 times with precooled PBS, and adherent cells were digested with trypsin free of EDTA. The solutions were combined, centrifuged, and washed 3 times again with precooled PBS. 400 μL of solution containing 5 μL of V-FITC and 10 μL of PI was added, incubation was performed at room temperature under protection from light, and detection was performed by flowcytometry after 30 min.
Background: A flow cytometer gives signals particle by particle.

Experimental for human brain glioma U251: as §2, §3, §4, §5

For orientation: IC50 means the concentration at which inhibition is half-maximal. Regarding `COc1cc(NC(=O)Nc2ccc(Cl)c(C(F)(F)F)c2)c2c(c1O)-c1c(OC)c(OC)cc3c1C(C2)N(C)CC3` (stereo not shown) [Compound 1], the “expressions of C-Myc, Ki-67, CylinD1 and β-Catenin protein compared to the blank group” value in assay [1] is listed as “significantly reduced”. For the same compound, the “tumor inhibition rates for three administration dosages” value in assay [2] (Example 25, 150, 100 and 50 mg/Kg, intragastric or intraperitoneal injection) is listed as not below 40%. The “Tumor inhibition rate (%)” value in assay [2] (intragastric administration, high dosage 150 mg/Kg) is 53.4%; in assay [2] (intragastric administration, low dosage 50 mg/Kg), 40.1%; in assay [2] (intragastric administration, middle dosage 100 mg/Kg) it was 48.2%; in assay [2] (intraperitoneal injection, high dosage 150 mg/Kg), 53.0%; in assay [2] (intraperitoneal injection, low dosage 50 mg/Kg) it was 40.3%; in assay [2] (intraperitoneal injection, middle dosage 100 mg/Kg), 46.3%. In the assay with Vimentin, the Vimentin expression result is “significantly increased”. Besides, the IC50 was determined as 16.8 ± 0.28 µg/mL (≈ 29.1 µM) with human brain glioma U251; 14.2 ± 0.66 µg/mL (≈ 24.6 µM) in assay [3]; 18.6 ± 0.29 µg/mL in assay [5] (48 h, read-out: IC50 Hela, after 48 h of action); 26.5 µM in assay [5] (read-out: IC50 HeLa, Table 1, MTT); 26.5 µM in assay [5] (read-out: IC50 Hela, Table 2, MTT). Besides, in assay [4], the growth inhibition activity result is on record as “certain growth inhibition activities”. Further, the apoptosis rate in the assay with HepG2 cells amounted to 11.93%.
